Results published in patent publication US20110105544A1, “CARBOXYLIC DERIVATIVES FOR USE IN THE TREATMENT OF CANCER” (priority 2007, published 2011).
Structures can show the parent of a compound that is named as a salt.

Assays:
[1] = tested on: human breast cancer cell line MCF-7; assay: alamarBlue viability assay, MCF-7; type: cell-based; conditions: MCF7, 72 hours, dose required to inhibit cell growth by 50%
Experimental: (§1) The human colon cancer cell line HCT116 and the human breast cancer cell line MCF-7 were from the American Type Culture Collection (ATCC; CCL-247 and HTB-22, respectively).
(§2) The HCT116 cell line was maintained in DMEM GlutaMAX (Invitrogen) supplemented with 10% fetal calf serum and the MCF7 cell line was maintained in RPMI1640 GlutaMAX (Invitrogen) containing 1 mM sodium piruvate and 10% fetal calf serum.
(§3) Cells were grown in a humidified incubator at 37° C. in 5% CO2.
(§4) Cells were plated in 96-well plates at a density of 6000 cells/well in 100 μl medium 24 h before addition of drugs. […] To do so, a drugs-dilution plate at twice the screening concentrations was prepared. 72 hours later, alamarBlue (Biosource, Invitrogen) viability assay was performed following manufacturer's protocol. In brief, alamarBlue diluted in media was added to cells to have a 5% solution. Cells were incubated at 37° C., 3 hours and at room temperature, 30 min. Cells with no drug and, cells with no drug and lysed with triton X-100 were used as controls. Fluorescence was monitored at 530 nm excitation and 590 nm emission wavelengths. Results were quantified using Infinite F200 Microplate Reader (Tecan Group, Ltd.). EC50 were calculated as the dose of drugs required to inhibit cell growth by 50%, with Origin 7.0 computer program.

[2] = tested on: human colon cancer cell line HCT116; assay: alamarBlue viability assay, HCT116; type: cell-based; conditions: HCT-116, 72 hours, dose required to inhibit cell growth by 50%
Experimental: as §1, §2, §3, §4

[3] = biological target: T1, human recombinant HDAC 8 (Homo sapiens, UniProt Q9BY41); assay: HDAC inhibition assay (Fluor de Lys), HDAC8; type: biochemical; conditions: inhibitor-protein incubation 0 hours, reaction 3 hours, 37° C.
T1 construct: purchased BPS Bioscience 50008
T1 sequence (Q9BY41 1-377): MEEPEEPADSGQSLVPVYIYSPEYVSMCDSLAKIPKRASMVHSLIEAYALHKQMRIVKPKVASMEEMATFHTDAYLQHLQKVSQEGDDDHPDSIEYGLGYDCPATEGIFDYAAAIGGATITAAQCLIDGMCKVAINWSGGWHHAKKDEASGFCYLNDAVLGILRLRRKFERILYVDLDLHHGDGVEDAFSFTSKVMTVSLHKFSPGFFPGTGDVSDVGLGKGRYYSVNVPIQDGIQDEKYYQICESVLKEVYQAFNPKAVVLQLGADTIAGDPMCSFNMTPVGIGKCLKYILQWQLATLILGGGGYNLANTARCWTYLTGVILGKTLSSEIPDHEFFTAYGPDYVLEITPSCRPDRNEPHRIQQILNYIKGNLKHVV
Experimental: (§5) All assays were carried out in the assay buffer: 50 mM Tris/Cl, pH 8.0, 137 mM NaCl, 2.7 mM KCl, 1 mM MgCl2).
(§6) Reactions were carried out in a 96-wells microplate (Corning 96 well Flat Bottom Non-binding surface (black) ref. 3651).
(§7) Potential inhibitors were added after five fold serial dilutions in DMSO. Final DMSO concentration in the assay microplate was kept at 2%.
(§8) Afterwards, human recombinant HDAC1, HDAC 2 or HDAC 8 were added up to […] respectively in assay buffer. When necessary, the mixture was incubated at room temperature prior the addition of substrate.
(§9) Total reaction volume of 50 μl. Human recombinant HDACs could be acquired from commercial sources (HDAC1: ref. #50001, BPS Bioscience™; HDAC 2: ref. #50002, BPS Bioscience™; HDAC 8: ref. #50008, BPS Bioscience™).
(§10) Reactions were stopped with 50 μl Developer (KI-105 Fluor de Lys™, BIOMOL®) with 2 μmol/L trichostatin A (TSA, final concentration 1 μmol/L). After 20 minutes at 37° C., fluorescence (excitation 360 nm, emission 460 nm) was measured using an Infinite F200 fluorimeter (Tecan). Background was determined in reactions using substrate in the absence of enzyme.
(§11) IC50 values are defined as the compound concentration at which the deacetylase activity is 50% inhibited. In these assays the following grading was used (I: IC50≦10 μM; II: 10 μM<IC50≦100 μM; III: 100 μM<IC50≦1 mM) The results obtained are summarized in Table 4.

[4] = biological target: T2, human recombinant HDAC 2 (Homo sapiens, UniProt Q92769); assay: HDAC inhibition assay (Fluor de Lys), HDAC2; type: biochemical; conditions: inhibitor-protein incubation 2 hours, reaction 1 h 30 min, 37° C.
T2 construct: purchased BPS Bioscience 50002
T2 sequence (Q92769 whole entry): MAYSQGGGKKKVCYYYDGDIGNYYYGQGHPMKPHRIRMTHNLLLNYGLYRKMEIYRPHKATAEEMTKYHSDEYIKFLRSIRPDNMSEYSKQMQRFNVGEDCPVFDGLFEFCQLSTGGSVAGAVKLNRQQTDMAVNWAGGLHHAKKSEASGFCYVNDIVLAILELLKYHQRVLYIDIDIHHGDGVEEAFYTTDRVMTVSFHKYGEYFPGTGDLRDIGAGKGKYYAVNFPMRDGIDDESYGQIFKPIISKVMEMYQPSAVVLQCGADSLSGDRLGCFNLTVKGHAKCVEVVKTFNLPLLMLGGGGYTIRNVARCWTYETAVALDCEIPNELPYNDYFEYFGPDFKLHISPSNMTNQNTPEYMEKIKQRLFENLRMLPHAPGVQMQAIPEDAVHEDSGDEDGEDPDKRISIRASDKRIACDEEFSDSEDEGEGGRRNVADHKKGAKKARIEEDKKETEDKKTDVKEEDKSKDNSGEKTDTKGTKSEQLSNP
Experimental: as §5, §6, §7, §8, §9, §10, §11

[5] = tested on: MDA-MB-468 (breast); assay: alamarBlue viability assay, MDA-MB-468; type: cell-based; conditions: Homo sapiens, 72 hours
Experimental: (§12) Additionally, the following cancer cell lines were used:
as §3
(§13) Cells were plated in 96-well plates at a density of 6000 cells/well in 100 μl medium 24 h before addition of drugs. They were then added in concentrations from 100 μM to 0.45 nM (each concentration in triplicate). To do so, a drugs-dilution plate at twice the screening concentrations was prepared. 72 hours later, alamarBlue (Biosource, Invitrogen) viability assay was performed following manufacturer's protocol. In brief, alamarBlue diluted in media was added to cells to have a 5% solution. Cells were incubated at 37° C., 3 hours and at room temperature, 30 min. Cells with no drug and, cells with no drug and lysed with triton X-100 were used as controls. Fluorescence was monitored at 530 nm excitation and 590 nm emission wavelengths. Results were quantified using Infinite F200 Microplate Reader (Tecan Group, Ltd.). EC50 were calculated as the dose of drugs required to inhibit cell growth by 50%, with Origin 7.0 computer program.

[6] = tested on: MDA-MB-435P (breast); assay: alamarBlue viability assay, MDA-MB-435P; type: cell-based; conditions: 72 hours
Experimental: as §12, §3, §13

[7] = tested on: Hep3B (hepatocarcinoma); assay: alamarBlue viability assay, Hep3B; type: cell-based; conditions: Homo sapiens, 72 hours
Experimental: as §12, §3, §4

[8] = tested on: PC3 (prostate); assay: alamarBlue viability assay, PC3; type: cell-based; conditions: 72 hours
Experimental: as §12, §3, §4

| SMILES | EC50 [1] [µM] | EC50 [2] [µM] | IC50 [3] [µM] | IC50 [4] [µM] | EC50 [5] [µM] | EC50 [6] [µM] | EC50 [7] [µM] | EC50 [8] [µM] |
| --- | --- | --- | --- | --- | --- | --- | --- | --- |
| COC(=O)C(C)CCc1ccccc1 (stereo not shown) [Example 2, methyl 2-methyl-4-phenylbutanoate] | 696 | 238 | – | – | – | – | – | – |
| CC(CCc1ccccc1)C(=O)O (stereo not shown) [Example 3, 2-Methyl-4-phenylbutanoic acid] | > 5000 | 4510 | 100 to 1000 | – | – | – | – | – |
| CCC(CCc1ccccc1)C(=O)O (stereo not shown) [Example 5, 2-Ethyl-4-phenylbutanoic acid] | 1420 | 2420 | – | – | – | – | – | – |
| CCCC(CCc1ccccc1)C(=O)O (stereo not shown) [Example 7, 2-(2-Phenylethyl)pentanoic acid] | 1850 | 680 | 10 to 100 | 100 to 1000 | – | – | – | – |
| COC(=O)C(CCc1ccccc1)Cc1ccccc1 (stereo not shown) [Example 8, Methyl 2-benzyl-4-phenylbutanoate] | 5000 | – | – | – | – | – | – | – |
| CNS(=O)(=O)c1ccc(CCCC(CCc2ccccc2)C(=O)O)cc1 (stereo not shown) [Example 13, 5-(4-[(Methylamino)sulfonyl]phenyl)-2-(2-phenylethyl)pentanoic acid] | 1800 | 2400 | 100 to 1000 | – | – | – | – | – |
| O=C(O)C(C/C=C/c1ccccc1)CCc1ccccc1 (stereo not shown) [Example 21, (4E)-5-Phenyl-2-(2-phenylethyl)pent-4-enoic acid] | – | 204 | 10 to 100 | 100 to 1000 | – | – | – | – |
| CNS(=O)(=O)c1ccc(CCCC(CCc2ccccc2)C(=O)O)s1 (stereo not shown) [Example 26, 5-{5-[(Methylamino)sulfonyl]thien-2-yl}-2-(2-phenylethyl)pentanoic acid] | – | 1700 | 100 to 1000 | – | – | – | – | – |
| O=C(O)C(CCCc1cccc(S(=O)(=O)NCc2ccccc2)c1)CCc1ccccc1 (stereo not shown) [Example 27, 5-(3-[(Benzylamino)sulfonyl]phenyl)-2-(2-phenylethyl)pentanoic acid] | – | 140 | 10 to 100 | 10 to 100 | – | – | – | – |
| O=C(O)C(CCCc1ccccc1)CCc1ccccn1 (stereo not shown) [Example 28, 5-Phenyl-2-(2-pyridin-2-ylethyl)pentanoic acid] | – | 312 | 100 to 1000 | – | – | – | – | – |
| COc1cccc(CCC(CCCc2ccccc2)C(=O)O)c1 (stereo not shown) [Example 29, 2-[2-(3-methoxyphenyl)ethyl]-5-phenylpentanoic acid] | – | 166 | 10 to 100 | 100 to 1000 | – | – | – | – |
| CC(=O)Nc1ccc(CCC(CCCc2ccccc2)C(=O)O)cc1 (stereo not shown) [Example 31, 2-{2-[4-(Acetylamino)phenyl]ethyl}-5-phenylpentanoic acid] | – | – | 10 to 100 | 100 to 1000 | – | – | – | – |
| CCCC(CCCc1ccccc1)C(=O)O (stereo not shown) [Example 35, 5-Phenyl-2-propylpentanoic acid] | – | 1300 | 10 to 100 | 100 to 1000 | – | – | – | – |
| Cc1ccc(NS(=O)(=O)c2cccc(C#CCC(CCc3ccccc3)C(=O)O)c2)cc1 (stereo not shown) [Example 38, 5-[3-(4-Methylanilinosulfonyl)phenyl]-2-(2-phenylethyl)pent-4-ynoic acid] | – | 121 | 10 to 100 | 100 to 1000 | – | – | – | – |
| O=C(O)C(CCCc1cccc(S(=O)(=O)Nc2ccccc2)c1)CCc1ccccc1 (stereo not shown) [Example 39] | – | 1200 | 100 to 1000 | – | – | – | – | – |
| CCc1ccc(CCC(CCCc2ccccc2)C(=O)O)cc1 (stereo not shown) [Example 45, 2-[2-(4-Ethylphenyl)ethyl]-5-phenylpentanoic acid] | – | 165 | ≤ 10 | 10 to 100 | – | – | – | – |
| CCc1ccc(CCC(CCCc2cccc(NC(=O)c3ccc(N(C)C)cc3)c2)C(=O)O)cc1 (stereo not shown) [Example 49, 5-(3-{[4-(Dimethylamino)benzoyl]amino}phenyl)-2-[2-(4-ethylphenyl)ethyl]pentanoic acid] | – | 140 | ≤ 10 | 100 to 1000 | – | – | – | – |
| COc1ccc(CCC(CCCc2ccccc2)C(=O)O)cc1 (stereo not shown) [Example 57, 2-[2-(4-Methoxyphenyl)ethyl]-5-phenylpentanoic acid] | – | 242 | 10 to 100 | 100 to 1000 | – | – | – | – |
| O=C(O)C(CCCc1ccccc1)OCc1ccccc1 (stereo not shown) [Example 69, 2-(Benzyloxy)-5-phenylpentanoic acid] | – | 965 | 10 to 100 | 100 to 1000 | – | – | – | – |

Next, values leading:

| EC50 [1] [µM] | EC50 [2] [µM] | IC50 [3] [µM] | IC50 [4] [µM] | EC50 [5] [µM] | EC50 [6] [µM] | EC50 [7] [µM] | EC50 [8] [µM] | SMILES |
| --- | --- | --- | --- | --- | --- | --- | --- | --- |
| 354 | 105 | – | – | – | – | – | – | CCC(CCc1ccccc1)C(=O)OC (stereo not shown) [Example 4, Methyl 2-ethyl-4-phenylbutanoate] |
| – | 65 | – | – | 13 | 6.7 | – | – | CNS(=O)(=O)c1cccc(CCCC(CCc2ccccc2)C(=O)OCOC(C)=O)c1 (stereo not shown) [Example 19, (Acetyloxy)methyl 5-(3-[(methylamino)sulfonyl]phenyl)-2-(2-phenylethyl)pentanoate] |
| – | 96.5 | 10 to 100 | 100 to 1000 | – | – | – | – | O=C(O)C(CCCc1ccc2ccccc2c1)CCc1ccccc1 (stereo not shown) [Example 22, 5-(2-Naphthyl)-2-(2-phenylethyl)pentanoic acid] |
| – | 67 | 10 to 100 | 10 to 100 | – | – | – | – | O=C(O)C(CCCc1cccc2ccccc12)CCc1ccccc1 (stereo not shown) [Example 23, 5-(1-Naphthyl)-2-(2-phenylethyl)pentanoic acid] |
| – | 75 | ≤ 10 | 10 to 100 | – | – | – | – | CN(C)c1ccc(C(=O)Nc2cccc(CCCC(CCc3ccccc3)C(=O)O)c2)cc1 (stereo not shown) [Example 24, 5-[3-{[4-(dimethylamino)benzoyl]amino}phenyl]-2-(2-phenylethyl)pentanoic acid hydrochloride] |
| – | 58.2 | 100 to 1000 | – | – | – | – | – | O=C(O)C(CCCc1ccccc1)CCc1cccc(O)c1 (stereo not shown) [Example 30, 2-[2-(3-Hydroxyphenyl)ethyl]-5-phenylpentanoic acid] |
| – | 44.8 | 10 to 100 | 10 to 100 | – | – | – | – | O=C(O)C(CCCc1ccc(S(=O)(=O)Nc2ccccc2)cc1)CCc1ccccc1 (stereo not shown) [Example 40, 5-(4-[Anilinosulfonyl]phenyl)-2-(2-phenylethyl)pentanoic acid] |
| – | 23 | ≤ 10 | 10 to 100 | 43 | 16 | 418 | 102 | O=C(O)C(CCCc1ccccc1)CCc1ccc(OCc2ccccc2)cc1 (stereo not shown) [Example 55, 2-[2-(4-Benzyloxyphenyl)ethyl]-5-phenylpentanoic acid] |
| – | 90 | ≤ 10 | 10 to 100 | – | – | – | – | O=C(O)C(CCCc1ccccc1)CCc1ccc(-c2cccnc2)cc1 (stereo not shown) [Example 77, 2-[2-(4-Pyridin-3′-ylphenyl)ethyl]-5-phenylpentanoic acid] |
